Columns and labels:
[1] = test system: A-549 human lung cancer cells; assay: Antitumor activity in the nude mouse tumor xenograft model (A-549); assay type: in vivo; details: A-549 s.c. xenograft in nude mice; for inhibition of A-549 tumor growth: 28-34 days, versus vehicle; for average tumor size: over a period of 28-34 days, vehicle about 600 mm^3, s.c. osmotic mini-pumps
Text: Antitumor activity in the nude mouse tumor xenograft model—Nude mice (Charles River, Wilmington, Mass.) were maintained in accordance with the Institutional Animal Care and Use Committee (IACUC) procedures and guidelines. A-549 cells were harvested, resuspended in PBS and injected s.c. into the right and left flank (7×10^6 cells per flank) of 8 week old female nude mice as reported previously (1, 2). When tumors reached 50 to 100 mm^3, animals either were implanted s.c. with 2-week osmotic mini-pumps (Alzet 2002, Alzet, Palo Alto, Calif.). The mini-pumps were implanted on the right flank and the tumor cells on the left flank. Control animals received a saline vehicle whereas treated animals were injected with either vehicle, GGTI-2154, GGTI-2418, GGTI-2432 and GGTI-2430. The tumor volumes were determined by measuring the length (l) and the width (w) and calculating the volume (V=lw^2/2) as described previously (30, 31).

[2] = test system: Rap1A processing by GGTase-I; assay: Inhibition of Rap1A processing (geranylgeranylation) in oncogenic H-Ras-transformed NIH 3T3 cells, immunoblot; assay type: cell-based; details: read-out: IC50, block of Rap1A processing by GGTase-I
Method: (§1) The in vitro inhibition assays of GGTase-1 and FTase were carried out by measuring the [^3H]GGPP and [^3H]FPP incorporated into H-Ras-CVLL and H-Ras-CVLS, respectively, as previously described.^27 The in vivo inhibition of geranylgeranylation and farnesylation was determined based on the level of inhibition of Rap1A and H-Ras processing, respectively.^10 Briefly, oncogenic H-Ras-transformed NIH 3T3 cells were treated with various concentrations of inhibitors, and the cell lysates were separated on 12.5% SDS-PAGE. The separated proteins were transferred to nitrocellulose and immunoblotted using an anti-Ras antibody (Y13-258) or an anti-Rap1A antibody (SC-65). Antibody reactions were visualized using either peroxidase-conjugated goat anti-rat IgG or goat anti-rabbit IgG and an enhanced chemiluminescence detection system. The results of those assays appear in Table 1 (FIG. 9), Table 2 (FIG. 10) and Table 3 (FIG. 11).

GGTase-I = GGTase-I (Homo sapiens, UniProt P49354+P53609); assay: In vitro GGTase-I inhibition ([3H]GGPP incorporation into H-Ras-CVLL); assay type: biochemical; details: Table 3, FIG. 11
Method: as §1

IC50 [2] [nM]	inhibition of GGTase-I (activity in words) (GGTase-I)	Structure (SMILES)	inhibition of A-549 tumor growth [1] [%]	average tumor size [1] [mm^3]
–	–	Cc1ccccc1-c1cc(NCc2cnc[nH]2)ccc1C(=O)N[C@@H](CC(C)C)C(=O)O [GGTI-2154, reference compound]	66	250
300	–	COC(=O)[C@H](CC(C)C)NC(=O)N1CCN(Cc2nc[nH]c2C)C(=O)[C@@H]1Cc1ccccc1 [GGTI-2417]	–	–
–	exceptional activity	Cc1nc[nH]c1CN1CCN(C(=O)N[C@@H](CC(C)C)C(=O)O)[C@@H](Cc2ccccc2)C1=O [GGTI-2418]	57	280

Source: patent publication US7763620B2, “Piperazinone compounds as anti-tumor and anti-cancer agents and methods of treatment” (Yale University, priority 2001, dated 2010)
